Key:
Format in all cases: in vivo
[1] = tested on: G93A high expressor line of transgenic male ALS mice with a B6SJL background; test: Rotarod motor function of transgenic ALS mice, CyPPA given at ALS onset P90 to P96 (Example 2); details: CyPPA 0.014 μg/kg daily IP for 7 days (P90-P96); 92 to 105 and 112 to 119 days of age; FIG. 4
Procedure: Because symptoms of ALS in the transgenic ALS mice emerge around P90, the effect of administering CyPPA at P90 was characterized. Without being bound by the theory, it is believed that administration of CyPPA in the transgenic ALS mice at ALS onset would correlate to beginning treatment in humans upon diagnosis of ALS. In this experiment, CyPPA (n=14) or vehicle solution (i.e., saline+11% DMSO; n=14) was administered to the transgenic ALS mice for seven (7) days (between ages P90 and P96) via daily IP injection. CyPPA was administered at a dose of 0.014 μg/kg.
(§1) In this experiment, the effect of CyPPA on survival of the transgenic ALS mice was assessed by determining when the transgenic ALS mice met end point criteria, i.e., full paralysis of both hind limbs and failing to right themselves 30 seconds after being turned on their backs. Additionally, the effect of CyPPA on motor function of the transgenic ALS mice was assessed by daily measuring from the age of P85 to the end stage using the rotarod machine. More specifically, the transgenic ALS mice were placed on a rotating rod for four minutes at a speed of 5 rotations per minute (i.e., RPM). The speed was increased to 25 RPM and the transgenic ALS mice were deemed unable to complete the task if they could complete only five percent (i.e., 12 seconds) of the task (i.e., the end stage).

[2] = tested on: G93A high expressor line of transgenic male ALS mice with a B6SJL background; test: Rotarod motor function of transgenic ALS mice, CyPPA given P5 to P20 (Example 1); details: CyPPA 0.014 μg/kg daily IP for 16 days (P5-P20)
Procedure: (§2) Thus, the effect of SK channel activators on survival and motor function of the G93A high expressor line of transgenic male ALS mice with a B6SJL background (hereinafter, “transgenic ALS mice”) was characterized. The transgenic ALS mice carry a mutation of the superoxide dismutase 1 gene; as a result, the transgenic ALS mice develop a neurodegenerative disease which closely mimics ALS in humans. In this experiment, CyPPA (n=13) or vehicle solution (i.e., saline+11% DMSO, n=12) was administered early to the transgenic ALS mice for sixteen (16) days (between ages P5 and P20) via daily intraperitoneal (i.e., IP) injection. CyPPA was administered at a dose of 0.014 μg/kg in both experiments.
as §1, with “stage). Rotarod performance was assessed to detect onset of symptoms associated with the neurodegenerative disease mimicking ALS in humans in the transgenic ALS mice and/or to monitor disease progression in the transgenic ALS mice, such as, e.g., via characterizing the rate of loss of motor function.” for “stage).”

[3] = tested on: G93A high expressor line of transgenic male ALS mice with a B6SJL background; test: Survival of transgenic ALS mice, CyPPA given P5 to P20 (Example 1); details: CyPPA 0.014 μg/kg daily IP for 16 days (P5-P20)
Procedure: as §2
as §1, with “stage). Rotarod performance was assessed to detect onset of symptoms associated with the neurodegenerative disease mimicking ALS in humans in the transgenic ALS mice and/or to monitor disease progression in the transgenic ALS mice, such as, e.g., via characterizing the rate of loss of motor function.” for “stage).”

With `Cc1cc(NC2CCCCC2)nc(-n2nc(C)cc2C)n1` [CyPPA] the “average motor function (rotarod completion ratio) versus vehicle control” value [1] was “significantly better”, the “time able to stay on the rotarod relative to vehicle control” value ([2]; 122 to 126 days of age, FIG. 3) was “significantly longer” and the “able to complete the rotarod task longer than vehicle-injected mice” value ([2]; FIG. 2) was 5 days. For the same molecule, the “reduction of rate of decline in motor function relative to vehicle control” value ([2]; FIG. 3, p=0.0017) was about 40%, the “slope of decline in motor function (rotarod percent complete vs days of age)” value ([2]; FIG. 3 line A, vehicle slope 0.0349) was 0.0211 and the “longer survival relative to control injected with vehicle solution” value [3] was 10 days. For the same molecule, the “increase in mean survival over control injected with vehicle solution” value ([3]; p=0.0063) was about 8% and the mean survival ([3]; vehicle 125.76 days, p=0.0063) was 135.72 days.

Reference: patent US20170299609A1, “TREATMENT OF AMYOTROPHIC LATERAL SCLEROSIS WITH SK CHANNEL ACTIVATORS” (Wright State University, priority 2016, published 2017)
